From PMC4562762 (Drug Design, Development and Therapy, 2015)

Assays:
[1] = tested on: VSVG-pseudotyped HIV-1 pNL4-3 virus expressing luciferase (HIV-1 Luc); assay: microbe, parasite or virus in culture; type: cell-based; conditions: Human immunodeficiency virus 1, read-out: IC50, one round HIV-1 infection
[2] = tested on: CEM-T cells; assay: Cell cycle analysis of CEM-T cells; type: cell-based; conditions: 1 μM, 24 hours
[3] = tested on: HIV-1 gag and env mRNAs; assay: HIV-1 gag and env mRNA expression in infected CEM-T cells; type: cell-based; conditions: CEM-T cells infected with HIV-1 Luc, 1 μM, 48 hours
[4] = in vitro; conditions: human
[5] = tested on: HIV-1 LTR / NF-κB; assay: Basal HIV-1 LTR and NF-κB driven luciferase transcription in 293T cells; type: cell-based; conditions: 2 μM (legend: 1 μM)
[6] = Stability in PBS supplemented with 10% BSA; type: physicochemical; conditions: 37°C
[7] = tested on: HIV-1 LTR; assay: Tat-induced HIV-1 LTR and proviral pNL4-3 luciferase transcription in 293T cells; type: cell-based; conditions: 2 μM (legend: 1 μM)
[8] = in vitro; conditions: IC50, viability of PBMCs, trypan blue, activated PBMCs
[9] = Stability in serum-free RPMI 1640 media; type: in vitro ADME; conditions: serum-free RPMI 1640 medium
[10] = tested on: HO-1; assay: HO-1 mRNA expression; type: cell-based; conditions: 1 μM, 18S RNA normalization
[11] = Stability in mouse serum at 37°C; type: in vitro ADME
[12] = tested on: HIV-1 reverse transcription; assay: Quantitative PCR for viral DNA; type: cell-based
[13] = CEM-T cells infected with HIV-1 Luc, compared with AZT

For `COc1cc(/C=C/C(=O)CC(=O)/C=C/c2ccc(O)c(OC)c2)ccc1O` [curcumin], the IC50 [1] was 700 nM, the “effect on cell cycle progression” value [2] was “no effect” and the “expression of HIV-1 gag and env mRNAs” value [3] was “significantly reduced”. The IC50 [4] was 1260 nM, the “effect on NF-kB driven transcription” value [5] was “no effect” and the “effect on basal HIV-1 transcription” value ([5]; HIV-1 LTR luciferase vector) was “no effect”. The “stabilizing effect of BSA (stability in PBS with 10% BSA)” value [6] was “No stabilization and even a slight increase in degradation”, the “effect on transcription from proviral pNL4-3 plasmid” value [7] was “Neither curcumin nor curcumin A at 2 μM concentrations had an effect” and the “effect on Tat-induced HIV-1 transcription” value ([7]; HIV-1 LTR luciferase + Tat vector) was “Neither curcumin nor curcumin A at 2 μM concentrations had an effect”. The IC50 [8] was 35000 nM, the half-life [9] was ~1 h and the “HO-1 expression in PBMCs” value [10] was “induced HO-1”. For the same compound, the “HO-1 expression in CEM-T cells” value ([10]; 24 hours) was “induced HO-1”, the half-life at 50 μM [11] was 10 h and the “effect on HIV-1 reverse transcription (overall)” value ([12]; 2 μM) was “inhibited HIV-1 RT”. The “effect on early LTR (early reverse transcription)” value [12, 13] was “inhibited early LTR similarly or better than the established HIV-1 inhibitor, AZT” and the “effect on late LTR formation (late reverse transcription)” value [12, 13] was “no significant effect”.
